Measurements taken from PubChem BioAssay (NCI).
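Assay format: 96-well plates, 48-hour exposure. TGI: total growth inhibition.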

Columns and labels:
Assay in all cases: inhibition of tumour cell growth, NCI panel, 48 h
[1] = test system: 786-0 renal
[2] = test system: MOLT-4 leukemia
[3] = test system: SR leukemia
[4] = test system: MDA-N
[5] = test system: U251 CNS
[6] = test system: SW-620 colon
[7] = test system: SK-OV-3 ovarian
[8] = test system: SK-MEL-5 melanoma
[9] = test system: UACC-62 melanoma
[10] = test system: SF-539 CNS
[11] = test system: HCT-15 colon
[12] = test system: HL-60(TB) leukemia
[13] = test system: SNB-75 CNS
[14] = test system: COLO 205 colon
[15] = test system: SN12C renal
[16] = test system: HCC-2998 colon
[17] = test system: HOP-62 NSCLC
[18] = test system: NCI-H23 lung
[19] = test system: HS 578T breast

Compound | TGI [1] | TGI [2] | TGI [3] | TGI [4] | TGI [5] | TGI [6] | TGI [7] | TGI [8] | TGI [9] | TGI [10] | TGI [11] | TGI [12] | TGI [13] | TGI [14] | TGI [15] | TGI [16] | TGI [17] | TGI [18] | TGI [19]
O=c1[nH]c(=O)n(COCCO)c2ccc(Br)cc12 | > 100 µM | > 100 µM | > 100 µM | > 100 µM | > 100 µM | > 100 µM | > 100 µM | > 100 µM | > 100 µM | > 100 µM | > 100 µM | > 100 µM | > 100 µM | > 100 µM | > 100 µM |  |  |  | 
COc1ccc(-c2cc(-c3ccc(Nc4ccnc5cc(Cl)ccc45)cc3)nc(N)c2C#N)cc1 | > 100 µM | > 100 µM | > 100 µM |  | > 100 µM | > 100 µM | > 100 µM |  | > 100 µM | > 100 µM | > 100 µM | > 100 µM | > 100 µM | > 100 µM |  | > 100 µM | > 100 µM | > 100 µM | 
COc1cc(/C=C/C(=O)OC2C(O)C3CC(OC(=O)c4cc(OC)c(OC)c(OC)c4)CC2N3C)cc(OC)c1OC (centres undefined) | > 50 µM | > 50 µM | 33.3 µM | > 50 µM | > 50 µM | > 50 µM | > 50 µM | > 50 µM | > 50 µM | > 50 µM | > 50 µM |  | > 50 µM | 42.5 µM | > 50 µM | > 50 µM | > 50 µM | > 50 µM | 
COc1ccc(C(=O)c2sc(Nc3ccccc3)nc2N)cc1 | > 100 µM | > 100 µM | > 100 µM |  | > 100 µM | > 100 µM | > 100 µM | > 100 µM | > 100 µM | > 100 µM | > 100 µM |  |  |  | > 100 µM | > 100 µM | > 80.2 µM | > 100 µM | > 100 µM
O=C(Cc1ccccc1)NN1C(=O)C(Cl)C1c1ccc([N+](=O)[O-])cc1 (centres undefined) | > 100 µM | > 100 µM | > 100 µM |  | > 100 µM | > 100 µM | > 100 µM | > 100 µM | > 100 µM |  | > 100 µM | > 100 µM | > 100 µM | > 100 µM | > 100 µM | > 100 µM | > 100 µM | > 100 µM | 
CN(C(=O)c1ccc(Cl)cc1)C(=S)N1CCN(c2ccccn2)CC1 | > 100 µM | > 100 µM | > 100 µM |  | > 100 µM | > 100 µM | > 100 µM | > 100 µM | > 100 µM | > 100 µM | > 100 µM | > 100 µM | > 100 µM | > 100 µM | > 100 µM |  | > 100 µM | > 100 µM | 
O=C1NCCCC12CCCNC2=O | > 100 µM | > 100 µM | > 100 µM |  | > 100 µM | > 100 µM | > 100 µM | > 100 µM |  | > 100 µM | > 100 µM | > 100 µM |  | > 100 µM | > 100 µM | > 100 µM | > 100 µM | > 100 µM | 
